Test results published in the supplement of paper PMC10307832.

Columns and labels:
Experiment in all cases: relative viability (nuclei count vs DMSO), 5 days (fraction); higher = more cells survive
[1] = test system: ChaGo-K-1
How it was run: (§1)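 Nuclei were stained with Hoechst during a one-step fixation (final 0.05% Triton X-100, 1% formaldehyde, 1 ug/ml Hoechst) carried out 5 days after dosing, then counted on 4× images. The cells, lung cancer lines in 1536-well plates, had been dosed by pin tool the day after seeding with one drug alone or a fixed anchor-drug dose plus five library-drug doses (not always all listed) in √10 steps. Relative viability is the nuclei count in treated wells divided by that in vehicle wells, and each value is the median of duplicate plates.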

[2] = test system: EKVX
How it was run: as §1

[3] = test system: EMC-BAC-2
How it was run: as §1

[4] = test system: EPLC-272H
How it was run: as §1

[5] = test system: HCC-78
How it was run: as §1

[6] = test system: HCC-827
How it was run: as §1

[7] = test system: LK-2
How it was run: as §1

[8] = test system: LU99A
How it was run: as §1

[9] = test system: NCI-H1666
How it was run: as §1

[10] = test system: NCI-H1975
How it was run: as §1

[11] = test system: NCI-H2126
How it was run: as §1

[12] = test system: NCI-H23
How it was run: as §1

[13] = test system: NCI-H2405
How it was run: as §1

[14] = test system: NCI-H322M
How it was run: as §1

[15] = test system: PC-14
How it was run: as §1

[16] = test system: RERF-LC-KJ
How it was run: as §1

[17] = test system: SK-LU-1
How it was run: as §1

[18] = test system: SW 1573
How it was run: as §1

CC(=O)O[C@@]12CO[C@@H]1C[C@H](O)[C@@]1(C)C(=O)[C@H](O)C3=C(C)[C@@H](OC(=O)[C@H](O)[C@@H](NC(=O)OC(C)(C)C)c4ccccc4)C[C@@](O)([C@@H](OC(=O)c4ccccc4)[C@H]21)C3(C)C [Docetaxel] + CC1(C)CCC(c2ccc(Cl)cc2)=C(CN2CCN(c3ccc(C(=O)NS(=O)(=O)c4ccc(N[C@H](CCN5CCOCC5)CSc5ccccc5)c(S(=O)(=O)C(F)(F)F)c4)cc3)CC2)C1 [Navitoclax] (partner 0.5 µM) showed a relative viability ([1]; first compound 0.0002 µM) of 1.02, a relative viability ([1]; first compound 0.000632 µM) of 0.597 and a relative viability ([1]; first compound 0.002 µM) of 0.485. For the same compound, the relative viability ([1]; first compound 0.006325 µM) was 0.429, the relative viability ([1]; first compound 0.02 µM) was 0.232 and the relative viability ([2]; first compound 0.0002 µM) was 0.918. For the same compound, the relative viability ([2]; first compound 0.000632 µM) was 0.847, the relative viability ([2]; first compound 0.002 µM) was 0.37 and the relative viability ([2]; first compound 0.006325 µM) was 0.196. For the same compound, the relative viability ([2]; first compound 0.02 µM) was 0.123, the relative viability ([3]; first compound 0.0002 µM) was 1.14 and the relative viability ([3]; first compound 0.000632 µM) was 1.11. For the same compound, the relative viability ([3]; first compound 0.002 µM) was 0.735, the relative viability ([3]; first compound 0.006325 µM) was 0.272 and the relative viability ([3]; first compound 0.02 µM) was 0.148. The relative viability ([4]; first compound 0.0002 µM) was 1.12, the relative viability ([4]; first compound 0.000632 µM) was 0.889 and the relative viability ([4]; first compound 0.002 µM) was 0.374. For the same compound, the relative viability ([4]; first compound 0.006325 µM) was 0.126, the relative viability ([4]; first compound 0.02 µM) was 0.0732 and the relative viability ([5]; first compound 0.0002 µM) was 0.75. It also gave a relative viability ([5]; first compound 0.000632 µM) of 0.455, a relative viability ([5]; first compound 0.002 µM) of 0.244 and a relative viability ([5]; first compound 0.006325 µM) of 0.242. It also gave a relative viability ([5]; first compound 0.02 µM) of 0.158, a relative viability ([6]; first compound 0.0002 µM) of 1.02 and a relative viability ([6]; first compound 0.000632 µM) of 1.02. It also gave a relative viability ([6]; first compound 0.002 µM) of 0.943, a relative viability ([6]; first compound 0.006325 µM) of 0.334 and a relative viability ([6]; first compound 0.02 µM) of 0.252. The relative viability ([7]; first compound 0.0002 µM) was 0.805, the relative viability ([7]; first compound 0.000632 µM) was 0.556 and the relative viability ([7]; first compound 0.002 µM) was 0.172. It also gave a relative viability ([7]; first compound 0.006325 µM) of 0.133, a relative viability ([7]; first compound 0.02 µM) of 0.145 and a relative viability ([8]; first compound 0.0002 µM) of 0.865. It also gave a relative viability ([8]; first compound 0.000632 µM) of 0.533, a relative viability ([8]; first compound 0.002 µM) of 0.277 and a relative viability ([8]; first compound 0.006325 µM) of 0.201. For the same compound, the relative viability ([8]; first compound 0.02 µM) was 0.148, the relative viability ([9]; first compound 0.0002 µM) was 0.646 and the relative viability ([9]; first compound 0.000632 µM) was 0.565. It also gave a relative viability ([9]; first compound 0.002 µM) of 0.354, a relative viability ([9]; first compound 0.006325 µM) of 0.302 and a relative viability ([9]; first compound 0.02 µM) of 0.186. For the same compound, the relative viability ([10]; first compound 0.0002 µM) was 1.1, the relative viability ([10]; first compound 0.000632 µM) was 1.11 and the relative viability ([10]; first compound 0.002 µM) was 0.276. It also gave a relative viability ([10]; first compound 0.006325 µM) of 0.252, a relative viability ([10]; first compound 0.02 µM) of 0.156 and a relative viability ([11]; first compound 0.0002 µM) of 0.873. It also gave a relative viability ([11]; first compound 0.000632 µM) of 0.954, a relative viability ([11]; first compound 0.002 µM) of 0.735 and a relative viability ([11]; first compound 0.006325 µM) of 0.334. It also gave a relative viability ([11]; first compound 0.02 µM) of 0.227, a relative viability ([12]; first compound 0.0002 µM) of 0.876 and a relative viability ([12]; first compound 0.000632 µM) of 0.741. For the same compound, the relative viability ([12]; first compound 0.002 µM) was 0.514, the relative viability ([12]; first compound 0.006325 µM) was 0.242 and the relative viability ([13]; first compound 0.0002 µM) was 0.907. The relative viability ([13]; first compound 0.000632 µM) was 0.543, the relative viability ([13]; first compound 0.002 µM) was 0.313 and the relative viability ([13]; first compound 0.006325 µM) was 0.203. For the same compound, the relative viability ([13]; first compound 0.02 µM) was 0.119, the relative viability ([14]; first compound 0.0002 µM) was 1.14 and the relative viability ([14]; first compound 0.000632 µM) was 1.13. The relative viability ([14]; first compound 0.002 µM) was 0.962, the relative viability ([14]; first compound 0.006325 µM) was 0.511 and the relative viability ([14]; first compound 0.02 µM) was 0.306. For the same compound, the relative viability ([15]; first compound 0.0002 µM) was 0.978, the relative viability ([15]; first compound 0.000632 µM) was 0.961 and the relative viability ([15]; first compound 0.002 µM) was 0.201. The relative viability ([15]; first compound 0.006325 µM) was 0.0826, the relative viability ([15]; first compound 0.02 µM) was 0.0464 and the relative viability ([16]; first compound 0.0002 µM) was 0.754. For the same compound, the relative viability ([16]; first compound 0.000632 µM) was 0.576, the relative viability ([16]; first compound 0.002 µM) was 0.174 and the relative viability ([16]; first compound 0.006325 µM) was 0.202. For the same compound, the relative viability ([16]; first compound 0.02 µM) was 0.154, the relative viability ([17]; first compound 0.0002 µM) was 0.721 and the relative viability ([17]; first compound 0.000632 µM) was 0.454. The relative viability ([17]; first compound 0.002 µM) was 0.141, the relative viability ([17]; first compound 0.006325 µM) was 0.215 and the relative viability ([17]; first compound 0.02 µM) was 0.112. It also gave a relative viability ([18]; first compound 0.0002 µM) of 1.06, a relative viability ([18]; first compound 0.000632 µM) of 0.204 and a relative viability ([18]; first compound 0.002 µM) of 0.15. For the same compound, the relative viability ([18]; first compound 0.006325 µM) was 0.0763 and the relative viability ([18]; first compound 0.02 µM) was 0.0456.
